This data set in a line: Metabolic stability in mouse liver S9 fraction. It counts as in vitro ADME. As to conditions: pooled liver S9 fraction, mouse liver S9, 1 μM compound. The method, then: The next step was an in vitro ADMET profiling of the best seven compounds so far: 9, 11, 14, 19, 20, 21, and 27. The compounds were tested for their kinetic solubility (1% DMSO in PBS, pH 7.4), lipophilicity (chromatographic Log D7.4 value), cellular permeability (using Caco-2 cells), and metabolic stability (using mouse and human liver S9 fractions) (see Table 3). […]
1.7 Metabolic Stability in Liver S9 Fractions
For the evaluation of combined phase I and phase II metabolic stability, the compound (1 μM) was incubated with 1 mg/mL pooled mouse liver S9 fraction (Xenotech, Kansas City, USA) or human liver S9 fraction (Corning, USA), 2 mM NADPH, 1 mM UDPGA, 10 mM MgCl 2, 5 mM GSH and 0.1 mM PAPS at 37 °C for 240 min. The metabolic stability of testosterone, verapamil and ketoconazole were determined in parallel to confirm the enzymatic activity of mouse S9 fractions, for human S9 testosterone, diclofenac and propranolol were used. The incubation was stopped after defined time points by precipitation of aliquots of S9 enzymes with 2 volumes of cold acetonitrile containing internal standard (150 nM diphenhydramine). Samples were stored on ice until the end of the incubation and precipitated protein was removed by centrifugation (15 min, 4 °C, 4,000 g). Concentration of the remaining test compound at the different time points was analyzed by HPLC-MS/MS (TSQ Quantum Access MAX, Thermo Fisher, Dreieich, Germany) and used to determine half -life (t1/2). Values are means of three

`COc1ccc(-c2cc(C)c(-n3cc(-c4ccc(C(=O)O)cc4)nn3)cn2)c(Cl)c1` [Compound 20]: under “read-out: MetStab Mouse Liver S9 Clint”, the microsomal CLint at 1 µM is under 5.8 µL/min/mg. For the same compound, the half-life at 1 µM (read-out: MetStab Mouse Liver S9 t1/2) was over 2 h.
